Source: article PMC9276531, “Hyaluronic acid–GPRC5C signalling promotes dormancy in haematopoietic stem cells” (Nature Cell Biology, 2022)

Legend:
Type in all cases: cell-based
[1] = target: T1, GPRC5C (Homo sapiens, UniProt Q9NQ84); test: PRESTO-Tango beta-arrestin recruitment, luciferase; conditions: HTLA cells, 24 h, HEPES/HBSS pH 7.4
T1 construct: GPRC5C-Tango plasmid, N-terminal Flag, PRESTO-Tango reporter fusion; transfected in HTLA or HEK293T cells

[2] = target: T1, GPRC5C; test: competition with HA-fluorescein on transfected HEK293T cells, flow cytometry; conditions: 100 uM NAG, 8 ug HA-fluorescein, 60 min, room temperature
[3] = target: T2, GPRC5C (Homo sapiens, UniProt Q9NQ84, N41L, form not given); test: PRESTO-Tango beta-arrestin recruitment, luciferase; conditions: HTLA cells, putative N-glycosylation site mutant
T2 construct: GPRC5C-Tango plasmid, N-terminal Flag, PRESTO-Tango reporter fusion; transfected in HTLA or HEK293T cells
T2 sequence (Q9NQ84 12-429 N41L): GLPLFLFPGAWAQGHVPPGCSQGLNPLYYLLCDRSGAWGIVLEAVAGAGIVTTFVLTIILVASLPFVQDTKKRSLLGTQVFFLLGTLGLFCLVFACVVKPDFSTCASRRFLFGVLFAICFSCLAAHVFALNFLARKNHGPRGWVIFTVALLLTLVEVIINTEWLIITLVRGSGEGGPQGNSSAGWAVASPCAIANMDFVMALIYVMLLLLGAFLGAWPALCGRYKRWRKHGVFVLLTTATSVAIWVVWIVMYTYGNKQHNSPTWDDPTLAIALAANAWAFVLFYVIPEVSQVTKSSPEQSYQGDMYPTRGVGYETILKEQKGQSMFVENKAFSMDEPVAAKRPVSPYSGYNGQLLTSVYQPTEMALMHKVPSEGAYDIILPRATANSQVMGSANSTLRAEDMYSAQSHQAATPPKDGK

T1 sequence (Q9NQ84 24-441): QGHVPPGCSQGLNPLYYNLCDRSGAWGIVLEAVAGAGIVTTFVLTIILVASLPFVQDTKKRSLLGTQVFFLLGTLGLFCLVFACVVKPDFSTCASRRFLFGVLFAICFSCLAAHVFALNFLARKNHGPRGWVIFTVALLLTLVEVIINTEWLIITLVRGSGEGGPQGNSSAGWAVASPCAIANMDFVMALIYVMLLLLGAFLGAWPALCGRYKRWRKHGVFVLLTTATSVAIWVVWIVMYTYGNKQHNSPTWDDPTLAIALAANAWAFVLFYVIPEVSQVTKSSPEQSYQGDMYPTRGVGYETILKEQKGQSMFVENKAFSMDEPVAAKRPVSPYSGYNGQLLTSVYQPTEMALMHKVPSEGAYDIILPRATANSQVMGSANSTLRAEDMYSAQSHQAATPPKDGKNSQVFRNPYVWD

SMILES: CC(=O)N[C@H]1C(O)O[C@H](CO)[C@@H](O)[C@@H]1O (stereo partly drawn) [NAG, N-acetyl-D-glucosamine]
- concentration-response (agonist) [1]: HA and NAG treatments led to a dose-dependent response
- competition with HA-fluorescein on transfected HEK293T cells, flow cytometry [2]: HA interaction with GPRC5C was reduced when NAG was present
- concentration-response (agonist) [3]: dampened the luciferase response that was previously elicited by treatment with HA and NAG
